Test results reported in the supplement of paper PMC8149375.

How the values were obtained:
Conditions in all cases: treatment: drug alone; 5 days
[1] = system: CAKI-1; test: AUC of dose-response viability curve, drug alone (arbitrary (AUC of normalised viability)); higher = less growth inhibition
Experimental: (§1)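 Primary HTS: 8 RCC cell lines treated with 8 doses (up to 10 uM) of each library drug alone for 5 days; viability read by CellTiter-Glo and normalised to DMSO. GI50 was fitted with XLfit (4-parameter), AUC is the area under the dose-response curve, and minimum viability is the lowest fraction of DMSO viability across doses.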

[2] = system: A498; test: as above
Experimental: as §1

[3] = system: UO-31; test: as above
Experimental: as §1

[4] = system: SN12C; test: as above
Experimental: as §1

[5] = system: TK-10; test: as above
Experimental: as §1

[6] = system: 786-O; test: as above
Experimental: as §1

[7] = system: ACHN; test: as above
Experimental: as §1

[8] = system: 769-P; test: as above
Experimental: as §1

[9] = system: CAKI-1; test: minimum viability across doses, drug alone, relative to DMSO (fraction); higher = less growth inhibition
Experimental: as §1

[10] = system: A498; test: as above
Experimental: as §1

[11] = system: UO-31; test: as above
Experimental: as §1

[12] = system: SN12C; test: as above
Experimental: as §1

[13] = system: TK-10; test: as above
Experimental: as §1

[14] = system: 786-O; test: as above
Experimental: as §1

[15] = system: ACHN; test: as above
Experimental: as §1

[16] = system: 769-P; test: as above
Experimental: as §1

[17] = system: CAKI-1; test: GI50, drug alone; higher = less potent
Experimental: as §1

[18] = system: A498; test: GI50, drug alone; higher = less potent
Experimental: as §1

[19] = system: UO-31; test: GI50, drug alone; higher = less potent
Experimental: as §1

[20] = system: SN12C; test: GI50, drug alone; higher = less potent
Experimental: as §1

[21] = system: TK-10; test: GI50, drug alone; higher = less potent
Experimental: as §1

[22] = system: 786-O; test: GI50, drug alone; higher = less potent
Experimental: as §1

[23] = system: ACHN; test: GI50, drug alone; higher = less potent
Experimental: as §1

[24] = system: 769-P; test: GI50, drug alone; higher = less potent
Experimental: as §1

Structure (SMILES) | GI50, drug alone [22] [nM] | GI50, drug alone [23] [nM] | AUC of dose-response viability curve [1] | AUC of dose-response viability curve [2] | AUC of dose-response viability curve [3] | AUC of dose-response viability curve [4] | AUC of dose-response viability curve [5] | AUC of dose-response viability curve [6] | AUC of dose-response viability curve [7] | AUC of dose-response viability curve [8] | minimum viability across doses [9] | minimum viability across doses [10] | minimum viability across doses [11] | minimum viability across doses [12] | minimum viability across doses [13] | minimum viability across doses [14] | minimum viability across doses [15] | minimum viability across doses [16] | GI50, drug alone [17] [nM] | GI50, drug alone [18] [nM] | GI50, drug alone [19] [nM] | GI50, drug alone [20] [nM] | GI50, drug alone [21] [nM] | GI50, drug alone [24] [nM]
C[C@@H](Oc1cc(-n2cnc3ccc(CN4CCN(C)CC4)cc32)sc1C(N)=O)c1ccccc1C(F)(F)F | 19.4 | 89.1 | 1.77 | 2.98 | 1.4 | 1.92 | 2.36 | 0.807 | 1.75 | 1.49 | 0.17 | 0.599 | 0.00269 | 0.234 | 0.235 | 0.00395 | 0.172 | 0.0562 | 153 | > 10000 | 44.9 | 120 | 1340 | 69.7
CC(C)(C)Cn1c(N)nc2ccc(-c3[nH]c(C(C)(C)C)nc3-c3ccc(F)cc3)nc21.CS(=O)(=O)O.CS(=O)(=O)O | > 10000 | 2190 | 2.63 | 4.16 | 3.5 | 3.15 | 2.43 | 2.91 | 2.41 | 2.98 | 0.512 | 0.972 | 0.733 | 0.811 | 0.564 | 0.636 | 0.407 | 0.709 | 8160 | > 10000 | > 10000 | > 10000 | 6630 | > 10000
Cn1cc(-c2ccc3nnc(C(F)(F)c4ccc5ncccc5c4)n3n2)cn1 | > 10000 | > 10000 | 2.4 | 4.15 | 4.62 | 3.44 | 3.33 | 3.59 | 3.24 | 3.38 | 0.59 | 1.05 | 1.12 | 0.93 | 0.799 | 0.862 | 0.792 | 0.868 | > 10000 | > 10000 | > 10000 | > 10000 | > 10000 | > 10000

Now from value to compound, other results behind:

GI50, drug alone [22] [nM] | GI50, drug alone [23] [nM] | Structure (SMILES) | AUC of dose-response viability curve [1] | AUC of dose-response viability curve [2] | AUC of dose-response viability curve [3] | AUC of dose-response viability curve [4] | AUC of dose-response viability curve [5] | AUC of dose-response viability curve [6] | AUC of dose-response viability curve [7] | AUC of dose-response viability curve [8] | minimum viability across doses [9] | minimum viability across doses [10] | minimum viability across doses [11] | minimum viability across doses [12] | minimum viability across doses [13] | minimum viability across doses [14] | minimum viability across doses [15] | minimum viability across doses [16] | GI50, drug alone [17] [nM] | GI50, drug alone [18] [nM] | GI50, drug alone [19] [nM] | GI50, drug alone [20] [nM] | GI50, drug alone [21] [nM] | GI50, drug alone [24] [nM]
772 | 592 | COc1ccc(-c2ccc3c(N4CCOCC4)nc(N4C[C@@H](C)O[C@@H](C)C4)nc3n2)cc1CO | 2.53 | 3.62 | 2.98 | 2.49 | 2.23 | 2.03 | 2.23 | 2.66 | 0.174 | 0.379 | 0.012 | 0.223 | 0.222 | 0.26 | 0.141 | 0.214 | 1080 | 4900 | 1630 | 1360 | 724 | 2120
1490 | 3020 | CNC(=O)c1c(F)cccc1Nc1nc(Nc2cc3c(cc2OC)CCN3C(=O)CN(C)C)nc2[nH]ccc12 | 2.94 | 4.86 | 4.52 | 2.88 | 2.69 | 2.4 | 2.82 | 2.73 | 0.00594 | 0.0165 | 0.0181 | 0.00561 | 0.142 | 0.00507 | 0.00292 | 0.016 | 3460 | 8550 | 8350 | 4020 | 3140 | 2400
